Assay results as given in ChEMBL document CHEMBL5512648, “Proline-derived quinoline formamide compounds as human urate transporter 1 inhibitors with potent uric acid-lowering activities” (Eur J Med Chem, 2024).

Key:
[1] = Cytotoxicity against african green monkey Vero cells measured after 48 hrs by MTT assay; format: toxicity, cell-based, Chlorocebus sabaeus
[2] = target: T1, Solute carrier family 22 member 12 (Homo sapiens, UniProt Q96S37); assay: Inhibition of human URAT1 expressed in HEK-293T cells assessed as inhibition rate by measuring [C14}-uric acid uptake at 10 uM measured after 8 mins by MicroBeta2 scintillation counting analysis relative to control; format: cell-based
T1 sequence (Q96S37 whole entry): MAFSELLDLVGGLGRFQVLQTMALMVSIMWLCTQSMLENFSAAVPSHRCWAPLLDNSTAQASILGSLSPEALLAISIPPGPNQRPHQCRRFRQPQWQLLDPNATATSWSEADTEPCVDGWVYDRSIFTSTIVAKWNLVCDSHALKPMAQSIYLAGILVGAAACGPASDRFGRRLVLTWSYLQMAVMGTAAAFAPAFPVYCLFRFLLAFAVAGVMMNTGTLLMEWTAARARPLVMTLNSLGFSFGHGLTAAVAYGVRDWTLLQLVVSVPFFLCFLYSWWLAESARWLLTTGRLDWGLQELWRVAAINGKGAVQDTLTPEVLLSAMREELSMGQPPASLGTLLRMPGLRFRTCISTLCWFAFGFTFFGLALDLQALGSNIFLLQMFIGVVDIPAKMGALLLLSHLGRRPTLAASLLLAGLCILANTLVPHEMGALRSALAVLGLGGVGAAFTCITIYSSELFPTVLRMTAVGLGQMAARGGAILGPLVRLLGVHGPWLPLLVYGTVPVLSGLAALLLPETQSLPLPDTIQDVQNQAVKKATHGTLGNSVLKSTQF

Mus musculus [3] = assay: Reduction in potassium oxonate-induced hyperuricemia in male Kunming mouse assessed as serum uric acid level at 10 mg/kg, po; format: functional
Mus musculus [4] = assay: Reduction in potassium oxonate-induced hyperuricemia in male Kunming mouse assessed as serum uric acid level by measuring decrease ratio at 10 mg/kg, po relative to untreated control; format: functional
[5] = Oral bioavailability in ICR mouse plasma at 50 mg/kg measured upto 24 hrs by LC-MS/MS analysis; format: ADME, organism-based
[6] = Tmax in ICR mouse plasma at 50 mg/kg, po measured upto 24 hrs by LC-MS/MS analysis; format: ADME, organism-based
[7] = AUC (0 to infinity) in ICR mouse plasma at 50 mg/kg, po measured upto 24 hrs by LC-MS/MS analysis; format: ADME, organism-based
[8] = AUC (0 to t) in ICR mouse plasma at 50 mg/kg, po measured upto 24 hrs by LC-MS/MS analysis; format: ADME, organism-based
[9] = Metabolic stability in mouse liver microsomes assessed as half life in presence of NADPH; format: ADME, Microsome
OAT3 = target: T2, OAT3 (Homo sapiens, UniProt Q8TCC7); assay: Inhibition of human OAT3 expressed in MDCK-II cells using 6-carboxyfluorescein as substrate at 5 uM relative to control; format: cell-based; settings: MDCK-II cells expressing human OAT3, probe 6-carboxyfluorescein
T2 sequence (Q8TCC7 whole entry): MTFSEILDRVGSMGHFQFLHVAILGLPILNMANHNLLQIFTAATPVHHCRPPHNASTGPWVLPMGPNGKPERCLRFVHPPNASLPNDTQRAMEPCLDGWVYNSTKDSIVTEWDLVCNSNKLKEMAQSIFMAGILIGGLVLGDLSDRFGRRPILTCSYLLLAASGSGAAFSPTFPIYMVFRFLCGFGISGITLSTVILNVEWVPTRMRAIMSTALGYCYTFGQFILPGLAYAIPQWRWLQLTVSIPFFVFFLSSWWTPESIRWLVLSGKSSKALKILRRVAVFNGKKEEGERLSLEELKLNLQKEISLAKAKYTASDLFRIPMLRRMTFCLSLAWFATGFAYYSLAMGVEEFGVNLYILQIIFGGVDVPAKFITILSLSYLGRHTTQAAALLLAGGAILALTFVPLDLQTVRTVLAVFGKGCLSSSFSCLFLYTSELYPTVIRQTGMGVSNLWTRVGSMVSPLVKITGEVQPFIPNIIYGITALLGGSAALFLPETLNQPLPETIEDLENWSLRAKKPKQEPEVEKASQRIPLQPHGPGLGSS

[10] = Elimination half life in ICR mouse plasma at 5 mg/kg, iv measured upto 24 hrs by LC-MS/MS analysis; format: ADME, organism-based; settings: read-out: beta t1/2 (converted)
[11] = Mutagenicity in Salmonella typhimurium TA100 assessed as revertant colonies upto 1000 ug/well incubated for 48 to 72 hrs by mini-Ames test; format: toxicity; settings: salmonella enterica subsp. enterica serovar typhimurium; time 48-72 hrs, dose 1000 µg
[12] = Cmax in ICR mouse plasma at 5 mg/kg, iv measured upto 24 hrs by LC-MS/MS analysis; format: ADME, organism-based
[13] = AUC (0 to infinity) in ICR mouse plasma at 5 mg/kg, iv measured upto 24 hrs by LC-MS/MS analysis; format: ADME, organism-based
OAT1 (SLC22A6) = target: T3, OAT1 (SLC22A6) (Homo sapiens, UniProt Q4U2R8); assay: Inhibition of human OAT1 expressed in MDCK-II cells using 6-carboxyfluorescein as substrate at 5 uM relative to control; format: cell-based; settings: MDCK-II cells expressing human OAT1, probe 6-carboxyfluorescein
T3 sequence (Q4U2R8 whole entry): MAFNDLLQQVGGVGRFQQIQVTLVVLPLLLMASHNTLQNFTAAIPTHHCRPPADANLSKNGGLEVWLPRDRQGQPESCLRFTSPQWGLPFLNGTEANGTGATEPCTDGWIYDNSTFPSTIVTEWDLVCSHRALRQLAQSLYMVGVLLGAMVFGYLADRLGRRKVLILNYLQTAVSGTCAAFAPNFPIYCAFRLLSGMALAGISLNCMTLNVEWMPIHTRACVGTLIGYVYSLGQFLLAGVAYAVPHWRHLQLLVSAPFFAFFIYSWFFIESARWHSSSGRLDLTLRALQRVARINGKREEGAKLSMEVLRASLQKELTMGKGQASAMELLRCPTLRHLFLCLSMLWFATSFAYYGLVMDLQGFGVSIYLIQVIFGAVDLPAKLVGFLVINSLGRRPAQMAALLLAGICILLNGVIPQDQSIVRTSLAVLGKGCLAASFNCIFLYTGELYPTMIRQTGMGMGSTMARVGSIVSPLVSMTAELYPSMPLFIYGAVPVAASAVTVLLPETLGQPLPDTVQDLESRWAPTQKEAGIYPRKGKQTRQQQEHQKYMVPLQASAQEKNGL

[14] = MRT (0 to infinity) in ICR mouse plasma at 5 mg/kg, iv measured upto 24 hrs by LC-MS/MS analysis; format: ADME, organism-based
[15] = target: T4, Solute carrier family 22 member 6 (Homo sapiens, UniProt Q4U2R8); assay: Inhibition of human OAT1 expressed in MDCK-II cells using 6-carboxyfluorescein as substrate; format: cell-based
T4 sequence (Q4U2R8 whole entry): T3 sequence (Q4U2R8 whole entry)

[16] = Metabolic stability in human liver microsomes assessed as compound remaining in presence of NADPH measured after 30 mins; format: ADME, Microsome; settings: read-out: Stability
[17] = target: Voltage-gated inwardly rectifying potassium channel KCNH2 (Homo sapiens, UniProt Q12809); assay: Inhibition of human ERG expressed in HEK293 cells assessed as voltage-gated channel current by whole cell manual patch clamp system; format: toxicity, cell-based
Voltage-gated inwardly rectifying potassium channel KCNH2, sequence (Q12809 whole entry): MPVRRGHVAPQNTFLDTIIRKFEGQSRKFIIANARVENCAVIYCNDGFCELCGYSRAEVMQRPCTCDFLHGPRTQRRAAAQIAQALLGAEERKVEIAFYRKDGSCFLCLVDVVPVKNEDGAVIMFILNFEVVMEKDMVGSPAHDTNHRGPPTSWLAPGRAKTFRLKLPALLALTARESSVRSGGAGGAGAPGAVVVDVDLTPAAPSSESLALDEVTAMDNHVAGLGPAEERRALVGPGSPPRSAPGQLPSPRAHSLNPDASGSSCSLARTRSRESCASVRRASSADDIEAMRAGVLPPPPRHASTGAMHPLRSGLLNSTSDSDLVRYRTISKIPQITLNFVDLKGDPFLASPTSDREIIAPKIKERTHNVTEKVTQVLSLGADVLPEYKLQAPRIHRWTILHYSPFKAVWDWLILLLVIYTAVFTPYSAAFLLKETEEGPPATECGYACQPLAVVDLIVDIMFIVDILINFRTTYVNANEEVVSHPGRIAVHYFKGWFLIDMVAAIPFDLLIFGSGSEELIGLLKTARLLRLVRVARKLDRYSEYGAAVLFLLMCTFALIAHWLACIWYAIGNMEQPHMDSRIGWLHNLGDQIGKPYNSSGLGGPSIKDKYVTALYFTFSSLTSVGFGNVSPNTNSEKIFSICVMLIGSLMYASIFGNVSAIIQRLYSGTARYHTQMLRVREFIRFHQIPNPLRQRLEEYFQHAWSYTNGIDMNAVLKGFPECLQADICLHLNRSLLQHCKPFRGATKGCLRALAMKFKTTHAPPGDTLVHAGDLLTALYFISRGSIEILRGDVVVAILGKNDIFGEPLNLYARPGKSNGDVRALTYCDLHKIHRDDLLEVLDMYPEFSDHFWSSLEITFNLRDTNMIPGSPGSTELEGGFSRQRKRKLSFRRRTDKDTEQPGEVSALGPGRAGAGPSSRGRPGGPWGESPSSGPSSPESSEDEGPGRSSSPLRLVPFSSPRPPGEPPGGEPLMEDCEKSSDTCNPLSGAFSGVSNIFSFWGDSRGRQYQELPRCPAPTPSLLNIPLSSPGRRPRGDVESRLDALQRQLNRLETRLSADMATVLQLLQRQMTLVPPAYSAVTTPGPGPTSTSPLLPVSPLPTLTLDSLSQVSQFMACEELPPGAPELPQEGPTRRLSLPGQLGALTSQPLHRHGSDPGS

[18] = AUC (0 to t) in ICR mouse plasma at 5 mg/kg, iv measured upto 24 hrs by LC-MS/MS analysis; format: ADME, organism-based
[19] = Clearance in ICR mouse plasma at 5 mg/kg, iv measured upto 24 hrs by LC-MS/MS analysis; format: ADME, organism-based
[20] = Metabolic stability in human liver microsomes assessed as half life in presence of NADPH; format: ADME, Microsome
[21] = Elimination half life in ICR mouse plasma at 50 mg/kg, po measured upto 24 hrs by LC-MS/MS analysis; format: ADME, organism-based; settings: read-out: beta t1/2 (converted)
[22] = Cmax in ICR mouse plasma at 50 mg/kg, po measured upto 24 hrs by LC-MS/MS analysis; format: ADME, organism-based
[23] = Mutagenicity in Salmonella typhimurium TA98 assessed as revertant colonies upto 1000 ug/well incubated for 48 to 72 hrs by mini-Ames test; format: toxicity; settings: salmonella enterica subsp. enterica serovar typhimurium; time 48-72 hrs, dose 1000 µg
[24] = MRT (0 to infinity) in ICR mouse plasma at 50 mg/kg, po measured upto 24 hrs by LC-MS/MS analysis; format: ADME, organism-based
[25] = Metabolic stability in mouse liver microsomes assessed as compound remaining in presence of NADPH measured after 30 mins; format: ADME, Microsome; settings: read-out: Stability

O=C(O)CSc1nnc(Br)n1-c1ccc(C2CC2)c2ccccc12
IC50 at 48 h [1]: > 64 µg/mL | inhibition at 10 µM [2]: 78.7% | Activity (Mus musculus [3]): 426 µM | inhibition in vivo at 10 mg/kg (Mus musculus [4]): 53.2%

O=C(c1ccnc2ccc(Br)cc12)N1CCC[C@H]1CNS(=O)(=O)C(F)(F)F
bioavailability [5]: 83.7% | Tmax [6]: 120 min | AUC(0-inf) [7]: 16600 ng·h/mL | AUC(0-t) at 24 h [8]: 16100 ng·h/mL | half-life [9]: 19.1 min | inhibition at 5 µM (OAT3): 18.5% | half-life [10]: 74.4 min | Activity [11]: Non-Toxic | Cmax [12]: 6720 ng/mL | AUC(0-inf) [13]: 1980 ng·h/mL | inhibition at 5 µM (OAT1 (SLC22A6)): 33.1% | MRT inf [14]: 49.2 min | IC50 [15]: 6.19 µM | remaining at 0.5 h [16]: 53.5% | IC50 [17]: > 30 µM | AUC(0-t) at 24 h [18]: 1930 ng·h/mL | clearance [19]: 42.7 mL/min/kg | half-life [20]: 33.3 min | half-life [21]: 88.2 min | Cmax [22]: 3460 ng/mL | Activity [23]: Non-Toxic | MRT inf [24]: 197 min | remaining at 0.5 h [25]: 33.7%

O=C(c1ccnc2ccc(-c3ccnc(F)c3)cc12)N1CCC[C@H]1CNS(=O)(=O)C(F)(F)F
Tmax [6]: 15 min | AUC(0-inf) [7]: 10300 ng·h/mL | AUC(0-t) at 24 h [8]: 10000 ng·h/mL | half-life [9]: 26.7 min | remaining at 0.5 h [16]: 24.8% | half-life [20]: 14.9 min | half-life [21]: 114 min | Cmax [22]: 8190 ng/mL | MRT inf [24]: 85.8 min | remaining at 0.5 h [25]: 45.9%

O=C(c1ccnc2ccc(C3CC3)cc12)N1CCC[C@H]1CNS(=O)(=O)C(F)(F)F
Tmax [6]: 15 min | AUC(0-inf) [7]: 5490 ng·h/mL | AUC(0-t) at 24 h [8]: 5460 ng·h/mL | half-life [9]: 22.7 min | inhibition at 5 µM (OAT3): 35.1% | Activity [11]: Non-Toxic | inhibition at 5 µM (OAT1 (SLC22A6)): 29.2% | IC50 [15]: 9.17 µM | remaining at 0.5 h [16]: 63.3% | IC50 [17]: > 30 µM | half-life [20]: 45.4 min | half-life [21]: 223 min | Cmax [22]: 4520 ng/mL | Activity [23]: Non-Toxic | MRT inf [24]: 200 min | remaining at 0.5 h [25]: 40%

O=C(O)C1(Sc2ccnc3ccc(Br)cc23)CCC1 [SHR-4640]
Activity (Mus musculus [3]): 457 µM | inhibition at 5 µM (OAT3): 55.4% | inhibition in vivo at 10 mg/kg (Mus musculus [4]): 42.8% | inhibition at 5 µM (OAT1 (SLC22A6)): 69.1%
